System: 349418-098-R-PDC spheroids, viability, % test/control
Assay: Anticancer human tumor 349418-098-R-PDC patient-derived lung adenocarcinoma cell line growth inhibition [IpAb]
Conditions: spheroids with HUVEC and MSC; for IC50: curve of first compound; for viability, T/C: stronger effect = lower value; active = viability on the fitted dose curve at most 10% of control; inactive = the rest
Method in brief: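 Spheroids of 60% malignant cells, 25% HUVEC and 15% MSC were exposed to targeted agents combined with ipatasertib or abemaciclib. Doses started at or near clinical Cmax (10 microM when unknown) and fell in half-log steps.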

[1] = second compound 0.01 µM, first compound 0.0316 µM
[2] = second compound 0.01 µM, first compound 0.1 µM
[3] = second compound 0.01 µM, first compound 0.316 µM
[4] = second compound 0.01 µM, first compound 1 µM
[5] = second compound 0.0316 µM, first compound 0.0316 µM
[6] = second compound 0.0316 µM, first compound 0.1 µM
[7] = second compound 0.0316 µM, first compound 0.316 µM
[8] = second compound 0.0316 µM, first compound 1 µM
[9] = second compound 0.1 µM, first compound 0.0316 µM
[10] = second compound 0.1 µM, first compound 0.1 µM
[11] = second compound 0.1 µM, first compound 0.316 µM
[12] = second compound 0.1 µM, first compound 1 µM
[13] = second compound 0.316 µM, first compound 0.0316 µM
[14] = second compound 0.316 µM, first compound 0.1 µM
[15] = second compound 0.316 µM, first compound 0.316 µM
[16] = second compound 0.316 µM, first compound 1 µM
[17] = second compound 1 µM, first compound 0.0316 µM
[18] = second compound 1 µM, first compound 0.1 µM
[19] = second compound 1 µM, first compound 0.316 µM
[20] = second compound 1 µM, first compound 1 µM

COc1c(OCCCN2CCOCC2)ccc2c3n(c(=NC(=O)c4cnc(N)nc4)nc12)CCN3 + CCN1CCN(Cc2ccc(Nc3ncc(F)c(-c4cc(F)c5nc(C)n(C(C)C)c5c4)n3)nc2)CC1
< 3.16 nM: IC50 (second compound 0.0316 µM) | IC50 (second compound 0.1 µM) | IC50 (second compound 0.316 µM) | IC50 (second compound 1 µM)
5.6 nM: IC50 (second compound 0.01 µM)
active: viability, T/C [1] 9.39% | viability, T/C [2] 6.45% | viability, T/C [3] 6.48% | viability, T/C [4] 6.24% | viability, T/C [5] 8.91% | viability, T/C [6] 6.1% | viability, T/C [7] 5.57% | viability, T/C [8] 5.71% | viability, T/C [9] 8.06% | viability, T/C [10] 6.16% | viability, T/C [11] 6.04% | viability, T/C [12] 5.83% | viability, T/C [13] 7.73% | viability, T/C [14] 6.28% | viability, T/C [15] 6.11% | viability, T/C [16] 6.92% | viability, T/C [17] 8.15% | viability, T/C [18] 6.25% | viability, T/C [19] 7.04% | viability, T/C [20] 7.33%
inactive: viability, T/C (second compound 0.01 µM, first compound 0.00316 µM) 66.8% | viability, T/C (second compound 0.01 µM, first compound 0.01 µM) 32.9% | viability, T/C (second compound 0.0316 µM, first compound 0.00316 µM) 48.8% | viability, T/C (second compound 0.0316 µM, first compound 0.01 µM) 13.5% | viability, T/C (second compound 0.1 µM, first compound 0.00316 µM) 23.6% | viability, T/C (second compound 0.1 µM, first compound 0.01 µM) 14% | viability, T/C (second compound 0.316 µM, first compound 0.00316 µM) 15.9% | viability, T/C (second compound 0.316 µM, first compound 0.01 µM) 10.6% | viability, T/C (second compound 1 µM, first compound 0.00316 µM) 14% | viability, T/C (second compound 1 µM, first compound 0.01 µM) 12.3%

Cc1nc(NC(=O)N2CCCC2C(N)=O)sc1-c1ccnc(C(C)(C)C(F)(F)F)c1 (stereo not given) + CCN1CCN(Cc2ccc(Nc3ncc(F)c(-c4cc(F)c5nc(C)n(C(C)C)c5c4)n3)nc2)CC1
< 31.6 nM: IC50 (second compound 0.0316 µM) | IC50 (second compound 0.1 µM) | IC50 (second compound 0.316 µM) | IC50 (second compound 1 µM)
inactive: viability, T/C [1] 59.8% | viability, T/C [2] 32.7% | viability, T/C [3] 17.9% | viability, T/C [4] 14.1% | viability, T/C (second compound 0.01 µM, first compound 3.16 µM) 10.2% | viability, T/C [5] 40.5% | viability, T/C [6] 27.1% | viability, T/C [7] 12.1% | viability, T/C [9] 20.3% | viability, T/C [10] 13.9% | viability, T/C [13] 15.9% | viability, T/C [14] 12.6% | viability, T/C [15] 9.79% | viability, T/C [17] 12.8% | viability, T/C [18] 11.4%
active: viability, T/C (second compound 0.01 µM, first compound 10 µM) 8.7% | viability, T/C [8] 7.43% | viability, T/C (second compound 0.0316 µM, first compound 3.16 µM) 7.43% | viability, T/C (second compound 0.0316 µM, first compound 10 µM) 8.13% | viability, T/C [11] 9.49% | viability, T/C [12] 7.63% | viability, T/C (second compound 0.1 µM, first compound 3.16 µM) 7.46% | viability, T/C (second compound 0.1 µM, first compound 10 µM) 7.65% | viability, T/C [16] 8.43% | viability, T/C (second compound 0.316 µM, first compound 3.16 µM) 9% | viability, T/C (second compound 0.316 µM, first compound 10 µM) 7.65% | viability, T/C [19] 9.14% | viability, T/C [20] 7.42% | viability, T/C (second compound 1 µM, first compound 3.16 µM) 7.89% | viability, T/C (second compound 1 µM, first compound 10 µM) 6.94%
47.5 nM: IC50 (second compound 0.01 µM)

Reference: PubChem BioAssay AID2060340 (Molecular Pharmacology Branch, DTP, NCI, 2025)
